How the values were obtained:
[1] = test system: HeLa cells; experiment: MTT-based proliferation assay, HeLa cells; format: cell-based; settings: Homo sapiens, 48 h, read-out: IC50, inhibition of proliferation (MTT)
Procedure: HeLa cells were seeded at 1 × 10^4 cells/well in 96-well plates. The day after the cells were incubated for 48 h with different concentrations of compounds (10–100) μM. The number of viable cells was quantified by MTT ([3-(4,5-dimethylthiazol-2-yl)-2,5-diphenyl tetrazolium bromide]) assay. Absorption at 550 nm for each well was assessed using a microplate reader (LabSystems, Vienna, VA, USA). Half maximal inhibitory concentration (IC50) values were calculated from cell viability dose–response curves and defined as the concentration resulting in 50% inhibition of cell survival as compared to controls.

[2] = test system: HaCat cell lines; experiment: Toxicity against HaCat cell line; format: cell-based
[3] = test system: hNcl; experiment: hNcl distribution in cell compartments (nucleus, cytosol, membrane); format: cell-based, human; settings: HeLa cells, 20 μM, 4 h
Procedure: The observed decrement of phosphorylated hNcl (p-hNcl) seems to be attributable to the overall decrease in its levels rather than to a modification of its cellular distribution.
For cytosol and membrane protein extraction, the HeLa cells were seeded at 1.5 × 10^6 in 100 mm culture dishes and incubated with oridonin (5 μM) or compound 12 (20 μM) for 4 h at 37 °C. The cells were harvested in PBS and centrifuged at 4 °C for 5 min at 600× g. Subsequently, the cell pellets were resuspended in lysis buffer (20 mM Tris HCl pH 7.4, 250 mM sucrose, 1 mM dithiothreitol (DTT), protease inhibitors, and 1 mM EDTA in water), sonicated (5 s pulse–9 s pause for 2 min, amplitude 42%) and then centrifuged at 4 °C for 10 min at 5000× g. The obtained supernatants were ultra-centrifuged at 4 °C for 1 h at 100,000× g, and cytosolic extracts were obtained. Each resulting pellet was resuspended in a lysis buffer and ultracentrifuged at 4 °C for 1 h at 100,000× g. The pellets were then resuspended in 250 μL solubilization buffer (20 mM Tris HCl pH 7.4, 1 mM DTT, 1 mM EDTA, and 1% Triton X-100 in water) and left overnight on an orbital shaker at 4 °C. After that, the solution was centrifuged at 4 °C for 30 min at 50,000× g, and membrane proteins were obtained. […]

[4] = test system: HeLa cells; experiment: Apoptosis analysis, Annexin V-FITC/PI and Parp/pro-Caspase 3 cleavage, HeLa cells; format: cell-based, human
Procedure: HeLa cells were seeded at 5.0 × 10^5 in 100 mm culture dishes. The day after, the cells were treated with DMSO and 12 at 10 μM and 20 μM for 48 h. The cell cycle was evaluated by propidium iodide (PI) staining of permeabilized cells (BD FACSCalibur flow cytometer, Becton Dickinson, San Jose, CA, USA). Data from 5000 events per sample were collected. The percentages of the elements in the hypodiploid region and in G0/G1, S, and G2/M phases of the cell cycle were calculated using the CellQuest and MODFIT software, respectively. The apoptosis analysis was carried out according to the protocol described in Annexin V, FITC Apoptosis Detection Kit (Dojindo EU GmbH, Munich, Germany). The samples were detected by Flow Cytometry (BD FACSCalibur flow cytometer, Becton Dickinson, San Jose, CA, USA) and analyzed by BD FACSuite software.

[5] = target: T1, hNcl (Homo sapiens, UniProt P19338); experiment: CETSA apparent melting temperature of hNcl in HeLa cells; format: cell-based; design: endogenous in cells; host or cells: HeLa (cervical carcinoma); settings: 20 μM, 2 h
T1 sequence (P19338 whole entry): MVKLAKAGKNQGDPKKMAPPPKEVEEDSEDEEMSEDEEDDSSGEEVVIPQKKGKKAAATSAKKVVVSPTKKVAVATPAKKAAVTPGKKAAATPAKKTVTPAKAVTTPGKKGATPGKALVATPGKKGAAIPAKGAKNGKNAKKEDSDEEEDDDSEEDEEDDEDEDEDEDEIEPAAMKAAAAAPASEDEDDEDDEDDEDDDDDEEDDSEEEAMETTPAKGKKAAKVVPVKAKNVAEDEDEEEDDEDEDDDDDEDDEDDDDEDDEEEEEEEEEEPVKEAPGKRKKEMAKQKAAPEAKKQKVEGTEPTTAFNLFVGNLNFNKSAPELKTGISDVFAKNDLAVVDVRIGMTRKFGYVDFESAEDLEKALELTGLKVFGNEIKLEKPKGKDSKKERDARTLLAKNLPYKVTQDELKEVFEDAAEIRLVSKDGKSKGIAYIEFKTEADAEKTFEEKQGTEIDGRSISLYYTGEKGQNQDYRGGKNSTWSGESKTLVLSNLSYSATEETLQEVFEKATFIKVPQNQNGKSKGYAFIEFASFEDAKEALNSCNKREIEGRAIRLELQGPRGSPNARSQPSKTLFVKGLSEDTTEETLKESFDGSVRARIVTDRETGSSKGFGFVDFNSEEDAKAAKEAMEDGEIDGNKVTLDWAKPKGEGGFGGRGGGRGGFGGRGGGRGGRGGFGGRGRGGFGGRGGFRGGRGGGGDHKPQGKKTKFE
Procedure: (§1) The 12/hNcl interaction was also investigated using CETSA and its effect on the hNcl denaturation temperature (Tm) in the cells was analyzed. HeLa cells incubated with 12, oridonin or the vehicle were heated to different temperatures in the 38–61 °C range, and the amount of soluble hNcl remaining at each T value was measured. […] Further CETSAs were performed using various concentrations of the compound (1–20 μM) and the amount of hNcl resisting thermal denaturation at 55.5 °C was then reported in a graph as a function of the concentration of 12 used (Figure S3 and Figure 1E). This experiment allowed the calculation of an EC50 (the compound concentration producing half of the maximum effect on hNcl stabilization) of 5 μM.
HeLa cells were seeded at 1.5 × 10^6 in 100 mm culture dishes. After 24 h, the cells were treated with compound 12 or oridonin (final concentration 20 μM) and incubated for 2 h in a CO2 incubator at 37 °C. The cells were then collected and centrifuged, and the cell pellets were washed with PBS and gently suspended in 1 mL PBS supplemented with protease inhibitors. […] The cells were then lysed and analyzed, as reported above.

[6] = target: T1, hNcl; experiment: CETSA-based EC50 determination in HeLa cells; format: cell-based; design: endogenous in cells; host or cells: HeLa (cervical carcinoma); settings: 2 h, heated at 55.5 °C, read-out: EC50 (concentration producing half of the maximum effect on hNcl stabilization)
Procedure: as §1
HeLa cells were seeded at 1.0 × 10^5 in 12-well plates. The treatment was performed for 2 h using compound 12 at the following concentrations: 0.1, 0.5, 1, 2, 5, 10, 15, and 20 μM. Subsequently, the drug-containing media were removed through centrifugation; the cells were washed with PBS, aliquoted in 0.2 mL tubes, and then heated at 55.5 °C (Tm of hNcl) for 3 min. They were then lysed and analyzed, as reported above. The hNcl/Gapdh density ratio measured at the […] concentration producing the maximum stabilizing effect was set as 100%.

SMILES: CC1(CO)CCCC2(C)C1C(O)CC13CC4C(CC12)C4(C(=O)O)C3 (stereo not drawn) [compound 12, 6,19-dihydroxy-ent-trachiloban-17-oic acid]
- IC50 [1]: 25 µM
- toxicity: concentration up to which no toxicity was observed [2]: > 100 µM
- distribution of hNcl in the different cell compartments [3]: did not show dramatic variations
- increase in early apoptosis ([4]; 48 h treatment, Annexin V-FITC/PI): approximately 20%
- Parp and pro-Caspase 3 cleavage ([4]; Western blot): observed
- Tm of hNcl in cells incubated with compound [5]: 55.5 °C
- stabilization of hNcl (hNcl vs. T graphs) compared with oridonin ([5]; 38–61 °C): stabilized hNcl more than oridonin did
- EC50 [6]: 5 µM

Reference: paper PMC9570042, “Impairment of Nucleolin Activity and Phosphorylation by a Trachylobane Diterpene from Psiadia punctulata in Cancer Cells” (International Journal of Molecular Sciences, 2022)
